The compounds below were run against recombinant CD73 (Homo sapiens (Human), UniProt P21589) (assay: Inhibition of soluble recombinant CD73 enzyme activity in vitro (AMP hydrolysis, Malachite Green phosphate detection)). Conditions: recombinant CD73 0.5 nM, AMP 50 μM, 30 minutes at room temperature.
Assay type: biochemical
Description: Inhibition of the CD73 Enzyme In Vitro
The concentration of inorganic phosphate was determined using a phosphate standard curve.

recombinant CD73, sequence (P21589 27-547): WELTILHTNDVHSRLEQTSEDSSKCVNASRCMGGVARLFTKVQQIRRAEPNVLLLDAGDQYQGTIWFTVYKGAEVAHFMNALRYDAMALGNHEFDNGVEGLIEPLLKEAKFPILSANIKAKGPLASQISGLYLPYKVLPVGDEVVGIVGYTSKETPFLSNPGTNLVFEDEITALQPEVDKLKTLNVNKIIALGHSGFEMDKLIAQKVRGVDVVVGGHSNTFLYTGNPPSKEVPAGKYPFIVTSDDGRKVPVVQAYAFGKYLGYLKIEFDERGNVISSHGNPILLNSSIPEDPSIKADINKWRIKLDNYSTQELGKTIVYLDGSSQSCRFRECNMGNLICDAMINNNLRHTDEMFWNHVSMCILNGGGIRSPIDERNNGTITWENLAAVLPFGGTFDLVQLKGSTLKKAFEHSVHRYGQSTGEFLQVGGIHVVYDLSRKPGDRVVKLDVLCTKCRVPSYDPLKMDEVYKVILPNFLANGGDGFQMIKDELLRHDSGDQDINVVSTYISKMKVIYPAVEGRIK

Row | Compound | IC50
1 | CS(=O)(=O)c1ccc(-c2ccc(CC(OC[C@H]3O[C@@H](n4cnc5c(N)nc(Cl)nc54)[C@@H](F)[C@@H]3O)(C(=O)O)C(=O)O)cc2)cc1 [Example 153] | 74 nM
2 | Nc1nc(Cl)nc2c1ncn2[C@@H]1O[C@H](COC(Cc2ccc(-c3cccs3)cc2)(C(=O)O)C(=O)O)[C@@H](O)[C@@H]1F [Example 158] | 105 nM
3 | Nc1nc(Cl)nc2c1ncn2[C@@H]1O[C@H](COC(Cc2ccccc2)(C(=O)O)C(=O)O)[C@@H](F)[C@H]1O [Example 165] | 8930 nM
4 | Nc1nc(Cl)nc2c1ncn2[C@@H]1O[C@H](COC(Cc2ccc(N3CCCNC3=O)cc2)(C(=O)O)C(=O)O)[C@@H](O)[C@@H]1F [Example 179] | 9 nM
5 | COc1cccc(CC(OC[C@H]2O[C@@H](n3cnc4c(N)nc(Cl)nc43)[C@@H](F)[C@@H]2O)(C(=O)O)C(=O)O)c1 | 839 nM
6 | C[C@H]1[C@@H](O)[C@H](n2cnc3c(N)nc(Cl)nc32)O[C@@H]1COC(Cc1ccccc1)(C(=O)O)C(=O)O [Example 167] | > 40000 nM
7 | Nc1nc(Cl)nc2c1ncn2[C@@H]1O[C@H](COC(Cc2ccc(-c3ccncc3)cc2)(C(=O)O)C(=O)O)[C@@H](O)[C@@H]1F [Example 156] | 86 nM
8 | Nc1nc(Cl)nc2c1ncn2[C@@H]1O[C@H](COC(Cc2cccc(OC(F)(F)F)c2)(C(=O)O)C(=O)O)[C@@H](O)[C@@H]1F [Example 15, 2-(((2R,3R,4S,5R)-5-(6-amino-2-chloro-9H-purin-9-yl)-4-fluoro-3-hydroxytetrahydrofuran-2-yl)methoxy)-2-(3-(trifluoromethoxy)benzyl) malonic acid] | 308 nM
9 | CCOC(=O)C(Cc1ccc(C(=O)OC)cc1)(OC[C@H]1O[C@@H](n2cnc3c(N)nc(Cl)nc32)[C@H](O)[C@@H]1O)c1nn[nH]n1 (some centres unmarked) [Example 195] | > 50000 nM
10 | Cc1noc(C)c1-c1ccc(CC(OC[C@H]2O[C@@H](n3cnc4c(N)nc(Cl)nc43)[C@@H](F)[C@@H]2O)(C(=O)O)C(=O)O)cc1 [Example 157] | 34 nM
11 | Nc1nc(Cl)nc2c1ccn2[C@@H]1O[C@H](COC(Cc2ccccc2)(C(=O)O)C(=O)O)[C@@H](O)[C@@H]1F [Example 169] | 119 nM
12 | N#Cc1ccc(CC(OC[C@H]2O[C@@H](n3cnc4c(N)nc(Cl)nc43)[C@@H](F)[C@@H]2O)(C(=O)O)C(=O)O)cc1 | 97 nM
13 | Nc1ncc(-c2ccc(CC(OC[C@H]3O[C@@H](n4cnc5c(N)nc(Cl)nc54)[C@@H](F)[C@@H]3O)(C(=O)O)C(=O)O)cc2)cn1 [Example 159] | 76 nM
14 | Nc1nc(Cl)nc2c1ncn2[C@@H]1O[C@H](COC(Cc2ccc(N3CCCCS3(=O)=O)cc2)(C(=O)O)C(=O)O)[C@@H](O)[C@@H]1F [Example 178] | 16 nM
15 | Nc1nc(Cl)nc2c1ncn2[C@@H]1O[C@H](COC(Cc2ccccc2)(C(=O)O)C(=O)O)[C@@H](O)[C@@H]1F [Example 6, 2-(((2R,3R,4S,5R)-5-(6-amino-2-chloro-9H-purin-9-yl)-4-fluoro-3-hydroxytetrahydro-furan-2-yl)methoxy)-2-benzylmalonic acid] | 130 nM
16 | Nc1nc(Cl)nc2c1ncn2[C@@H]1O[C@H](COC(Cc2cccc(F)c2)(C(=O)O)C(=O)O)[C@@H](O)[C@@H]1F | 273 nM
17 | N#Cc1cccc(CC(OC[C@H]2O[C@@H](n3cnc4c(N)nc(Cl)nc43)[C@@H](F)[C@@H]2O)(C(=O)O)C(=O)O)c1 | 531 nM
18 | Cc1[nH]ncc1-c1ccc(CC(OC[C@H]2O[C@@H](n3cnc4c(N)nc(Cl)nc43)[C@@H](F)[C@@H]2O)(C(=O)O)C(=O)O)cc1 [Example 177] | 48 nM
19 | Nc1cccc(CC(OC[C@H]2O[C@@H](n3cnc4c(N)nc(Cl)nc43)[C@@H](F)[C@@H]2O)(C(=O)O)C(=O)O)c1 | 218 nM
20 | C[C@@]1(O)[C@@H](COC(Cc2ccccc2)(C(=O)O)C(=O)O)O[C@@H](n2cnc3c(N)nc(Cl)nc32)[C@@H]1O [Example 149] | 51 nM
21 | Nc1nc(Cl)nc2c1ccn2[C@@H]1O[C@H](COC(Cc2ccc(C(=O)O)cc2)(C(=O)O)C(=O)O)[C@@H](O)[C@@H]1F [Example 171] | 114 nM
22 | CC(C)(C)n1nnc(C(Cc2ccccc2)(OC[C@H]2O[C@@H](n3cnc4c(N)nc(Cl)nc43)[C@H](O)[C@H]2O)C(=O)O)n1 (some centres unmarked) [Example 204] | 7850 nM
23 | Nc1nc(Cl)nc2c1ncn2[C@@H]1O[C@H](COC(Cc2ccc(F)cc2)(C(=O)O)C(=O)O)[C@@H](O)[C@@H]1F | 343 nM
24 | [N-]=[N+]=Nc1nc(N)c2ncn([C@@H]3O[C@H](COC(Cc4cccc(-c5nnn[nH]5)c4)(C(=O)O)C(=O)O)[C@@H](O)[C@@H]3F)c2n1 | 1040 nM
25 | CCOC(=O)C(Cc1ccc(-c2ccccc2)cc1)(OC[C@H]1O[C@@H](n2cnc3c(N)nc(Cl)nc32)[C@@H](F)[C@@H]1O)C(=O)O (single isomer, unassigned) [84 Isomer 1] | 7260 nM
26 | CC(C)(C)OC(=O)Nc1nc(Cl)nc2c1ncn2[C@@H]1O[C@H](COC(Cc2ccccc2)(C(=O)O)c2nnnn2C(C)(C)c2ccccc2)[C@@H](O)[C@@H]1F (some centres unmarked) [Example 188] | 11500 nM
27 | Nc1nc(Cl)nc2c1ncn2[C@@H]1O[C@H](COC(Cc2ccc(C(F)(F)F)cc2)(C(=O)O)C(=O)O)[C@@H](O)[C@@H]1F [Example 20, 2-(((2R,3R,4S,5R)-5-(6-amino-2-chloro-9H-purin-9-yl)-4-fluoro-3-hydroxytetrahydrofuran-2-yl)methoxy)-2-(4-(trifluoromethyl)benzyl) malonic acid] | 109 nM

Row | Compound | IC50
28 | CC(C)(C)OC(=O)Nc1nc(N=[N+]=[N-])nc2c1ncn2[C@@H]1O[C@H](COC(Cc2cccc(C#N)c2)(C(=O)O)C(=O)O)[C@@H](O)[C@@H]1F | 1790 nM
29 | C[C@@]1(O)[C@H](O)[C@@H](COC(Cc2ccccc2)(C(=O)O)c2nn[nH]n2)O[C@H]1n1cnc2c(N)nc(Cl)nc21 (some centres unmarked) [Example 202] | > 50000 nM
30 | CN(C)C(=O)c1cccc(CC(OC[C@H]2O[C@@H](n3cnc4c(N)nc(Cl)nc43)[C@@H](F)[C@@H]2O)(C(=O)O)C(=O)O)c1 | 521 nM
31 | COc1ccccc1C(=O)Nc1ccc(CC(OC[C@H]2O[C@@H](n3cnc4c(N)nc(Cl)nc43)[C@@H](F)[C@@H]2O)(C(=O)O)C(=O)O)cc1 [Example 150] | 16 nM
32 | C[C@@]1(F)C[C@@H](COC(Cc2ccc(C(=O)O)cc2)(C(=O)O)C(=O)O)O[C@H]1n1cnc2c(N)nc(Cl)nc21 [Example 180] | > 100000 nM
33 | CCOC(=O)c1ccccc1-c1ccc(CC(OC[C@H]2O[C@@H](n3cnc4c(N)nc(Cl)nc43)[C@@H](F)[C@@H]2O)(C(=O)O)C(=O)O)cc1 [Example 175] | 18 nM
34 | Nc1nc(Cl)nc2c1ncn2[C@@H]1O[C@H](COC(Cc2ccccc2)(C(=O)O)C(=O)O)[C@H](N)[C@H]1O [Example 166] | > 10000 nM
35 | Nc1nc(Cl)nc2c1ncn2[C@@H]1O[C@H](COC(Cc2ccc(-c3ccccn3)cc2)(C(=O)O)C(=O)O)[C@@H](O)[C@@H]1F [Example 176] | 56 nM
36 | Nc1nc(Cl)nc2c1ncn2[C@@H]1O[C@H](COC(Cc2ccc(-c3ccccc3C(=O)O)cc2)(C(=O)O)C(=O)O)[C@@H](O)[C@@H]1F [Example 151] | 31 nM
37 | C=C1[C@@H](O)[C@H](n2cnc3c(N)nc(Cl)nc32)O[C@@H]1COC(Cc1ccccc1)(C(=O)O)C(=O)O [Example 154] | 1800 nM
38 | CCOC(=O)C(Cc1ccccc1)(OC[C@H]1O[C@@H](n2cnc3c(N)nc(Cl)nc32)[C@@H](F)[C@@H]1O)c1nn[nH]n1 (some centres unmarked) [Example 193] | > 50000 nM
39 | CCOC(=O)C(OC[C@H]1O[C@@H](n2cnc3c(N)nc(Cl)nc32)[C@H](O)[C@@H]1O)c1nnn[nH]1 (some centres unmarked) [Example 182] | > 50000 nM
40 | Nc1nc(Cl)nc2c1ncn2[C@@H]1O[C@H](COC(Cc2ccc(N3CCCC3=O)cc2)(C(=O)O)C(=O)O)[C@@H](O)[C@@H]1F [Example 162] | 54 nM
41 | Cc1n[nH]c(C)c1-c1ccc(CC(OC[C@H]2O[C@@H](n3cnc4c(N)nc(Cl)nc43)[C@@H](F)[C@@H]2O)(C(=O)O)C(=O)O)cc1 [Example 152] | 34 nM
42 | Nc1nc(Cl)nc2c1ncn2[C@@H]1O[C@H](COC(Cc2ccc(-c3ccccc3O)cc2)(C(=O)O)C(=O)O)[C@@H](O)[C@@H]1F [Example 160] | 12 nM
43 | CCOC(=O)C(Cc1ccc(-c2ccccc2)cc1)(OC[C@H]1O[C@@H](n2cnc3c(N)nc(Cl)nc32)[C@@H](F)[C@@H]1O)C(=O)O (single isomer, unassigned) [84 Isomer 2] | 8260 nM
44 | Nc1nc(Cl)nc2c1ncn2[C@@H]1O[C@H](COC(Cc2ccc(CO)cc2)(C(=O)O)C(=O)O)[C@@H](O)[C@@H]1F | 160 nM
45 | Nc1ncnc2c1ncn2[C@@H]1O[C@H](COC(Cc2ccccc2)(C(=O)O)C(=O)O)[C@@H](O)[C@H]1F | 21600 nM
46 | Nc1nc(Cl)nc2c1ncn2[C@@H]1O[C@H](COC(Cc2ccsc2)(C(=O)O)C(=O)O)[C@@H](O)[C@@H]1F | 206 nM
47 | Nc1nc(Cl)nc2c1ncn2[C@@H]1O[C@H](COC(Cc2ccc(-c3ccc(C(=O)O)cc3)cc2)(C(=O)O)C(=O)O)[C@@H](O)[C@@H]1F [Example 155] | 47 nM
48 | Nc1nc(Cl)nc2c1ncn2[C@@H]1O[C@H](COC(Cc2cccc(C(=O)O)c2)(C(=O)O)C(=O)O)[C@@H](O)[C@@H]1F | 119 nM
49 | Nc1nc(Cl)nc2c1ncn2[C@@H]1O[C@H](COC(Cc2ccc(-c3cccc(F)c3O)cc2)(C(=O)O)C(=O)O)[C@@H](O)[C@@H]1F [Example 181] | 9 nM
50 | Nc1nc(Cl)nc2c1ncn2[C@@H]1O[C@H](COC(Cc2ccc(OC(F)(F)F)cc2)(C(=O)O)C(=O)O)[C@@H](O)[C@@H]1F | 57 nM
51 | Nc1nc(Cl)nc2c1ncn2[C@@H]1O[C@H](COC(C(=O)O)C(=O)O)[C@@H](O)[C@@H]1F [Example 5] | 13100 nM
52 | Nc1nc(Cl)nc2c1ncn2[C@@H]1O[C@H](COC(Cc2ccc(Cl)nc2)(C(=O)O)C(=O)O)[C@@H](O)[C@@H]1F [Example 8, 2-(((2R,3R,4S,5R)-5-(6-amino-2-chloro-9H-purin-9-yl)-4-fluoro-3-hydroxytetrahydro-furan-2-yl)methoxy)-2-((6-chloropyridin-3-yl)methyl)malonic acid] | 363 nM
53 | C[C@@H]1[C@@H](O)[C@H](n2cnc3c(N)nc(Cl)nc32)O[C@@H]1COC(Cc1ccccc1)(C(=O)O)C(=O)O [Example 168] | 1750 nM
